Assay results from the supplement of paper PMC13380429.

What was measured:
[1] = tested on: A549-ACE2 infected with SARS-CoV-2; assay: cell count relative to DMSO; higher = less toxic; conditions: 24 h
Caco-2 [2] = assay: cell viability relative to DMSO; higher = less toxic; conditions: 72 h
Calu-3 [3] = assay: as above; conditions: 72 h
HepG2 [4] = assay: as above; conditions: 72 h
U2OS [5] = assay: as above; conditions: 72 h
Vero E6 [6] = assay: as above; conditions: 72 h
[7] = tested on: A549-ACE2 infected with SARS-CoV-2; assay: SARS-CoV-2 infection rate relative to DMSO; higher = more infection; conditions: 24 h
A549-ACE2 [8] = assay: phospholipidosis EC50; higher = less potent phospholipidosis inducer
A549-ACE2 [9] = assay: drug-induced phospholipidosis relative to tamoxifen; higher = more phospholipidosis
[10] = tested on: A549-ACE2 infected with SARS-CoV-2; assay: morphology score (similarity to uninfected cells); higher = more like uninfected cells; conditions: 24 h
Caco-2 [11] = assay: relative viability EC50 (midpoint between 100% and the lowest measured viability); higher = less toxic; conditions: 72 h
Calu-3 [12] = assay: as above; conditions: 72 h
U2OS [13] = assay: as above; conditions: 72 h
Vero E6 [14] = assay: as above; conditions: 72 h
Caco-2 [15] = assay: drug sensitivity score (DSS) for viability; higher = more toxic; extreme values may be limits of the assay; conditions: 72 h
Calu-3 [16] = assay: as above; conditions: 72 h
HepG2 [17] = assay: as above; conditions: 72 h
U2OS [18] = assay: as above; conditions: 72 h
Vero E6 [19] = assay: as above; conditions: 72 h
HepG2 [20] = assay: relative viability EC50 (midpoint between 100% and the lowest measured viability); higher = less toxic; conditions: 72 h

COc1cc(C[C@H]2c3cc(OC)c(OC)cc3CCN2C)c(Oc2cc3c(cc2OC)-c2c(OC)c(OC)cc4c2[C@H](C3)N(C)CC4)cc1OC [thaliblastine]
Conditions | SARS-CoV-2 infection rate [%] | cell count [%] | cell viability [%] | morphology score | phospholipidosis EC50 [µM]
A549-ACE2 [8], 24 h | – | – | – | – | 1.3
A549-ACE2 [8], 48 h | – | – | – | – | 2.7
A549-ACE2 [8], 72 h | – | – | – | – | 6.76
Caco-2 [2], 1 nM | – | – | 88.3 | – | –
Caco-2 [2], 10 nM | – | – | 93.6 | – | –
Caco-2 [2], 100 nM | – | – | 104 | – | –
Caco-2 [2], 1000 nM | – | – | 102 | – | –
Caco-2 [2], 10000 nM | – | – | 86 | – | –
Calu-3 [3], 1 nM | – | – | 102 | – | –
Calu-3 [3], 10 nM | – | – | 109 | – | –
Calu-3 [3], 100 nM | – | – | 97.1 | – | –
Calu-3 [3], 1000 nM | – | – | 90.2 | – | –
Calu-3 [3], 10000 nM | – | – | 18.2 | – | –
HepG2 [4], 1 nM | – | – | 92.4 | – | –
HepG2 [4], 10 nM | – | – | 111 | – | –
HepG2 [4], 100 nM | – | – | 96.3 | – | –
HepG2 [4], 1000 nM | – | – | 105 | – | –
HepG2 [4], 10000 nM | – | – | 62 | – | –
U2OS [5], 1 nM | – | – | 94.4 | – | –
U2OS [5], 10 nM | – | – | 93.9 | – | –
U2OS [5], 100 nM | – | – | 100 | – | –
U2OS [5], 1000 nM | – | – | 96.6 | – | –
U2OS [5], 10000 nM | – | – | 83 | – | –
Vero E6 [6], 1 nM | – | – | 90.6 | – | –
Vero E6 [6], 10 nM | – | – | 100 | – | –
Vero E6 [6], 100 nM | – | – | 89.8 | – | –
Vero E6 [6], 1000 nM | – | – | 102 | – | –
Vero E6 [6], 10000 nM | – | – | 96.6 | – | –
[1], 0.3 µM | – | 109 | – | – | –
[1], 3 µM | – | 120 | – | – | –
[1], 10 µM | – | 122 | – | – | –
[1], 30 µM | – | 115 | – | – | –
[7], 0.3 µM | 95 | – | – | – | –
[7], 3 µM | 28 | – | – | – | –
[7], 10 µM | 21 | – | – | – | –
[7], 30 µM | 34 | – | – | – | –
[10], 0.3 µM | – | – | – | 0.32 | –
[10], 3 µM | – | – | – | 0.61 | –
[10], 10 µM | – | – | – | 0.29 | –
[10], 30 µM | – | – | – | -0.02 | –

drug-induced phospholipidosis [%], A549-ACE2 [9]
Conditions | 0.3 µM | 0.833333 µM | 3.33333 µM | 6.66667 µM | 10 µM | 30 µM
24 h | 9.75 | 20.6 | 72.4 | 86.2 | 80.5 | 65.6
48 h | 11.1 | 12.9 | 77.4 | 95.4 | 104 | 120
72 h | 10.4 | 12.7 | 67.9 | 103 | 105 | 154

Conditions | drug sensitivity score | relative viability EC50 [µM]
Caco-2 [11] | – | > 10
Caco-2 [15] | 0.1 | –
Calu-3 [12] | – | 2.18
Calu-3 [16] | 6.2 | –
HepG2 [17] | 1.5 | –
U2OS [13] | – | > 10
U2OS [18] | 0.8 | –
Vero E6 [14] | – | > 10
Vero E6 [19] | 0 | –

O=C(O)CNC(=O)C(CS)Cc1ccccc1 (configuration not stated) [thiorphan]
cell viability [%]
Conditions | Caco-2 [2] | Calu-3 [3] | HepG2 [4] | U2OS [5] | Vero E6 [6]
1 nM | 107 | 103 | 94.2 | 99.4 | 107
10 nM | 99 | 99.5 | 90.9 | 103 | 95
100 nM | 86.2 | 98.6 | 99.7 | 98.7 | 94.3
1000 nM | 102 | 95.5 | 92.1 | 98.7 | 101
10000 nM | 110 | 114 | 95.7 | 96.9 | 104

Conditions | drug sensitivity score | relative viability EC50 [µM]
Caco-2 [11] | – | > 10
Caco-2 [15] | 0 | –
Calu-3 [12] | – | > 10
Calu-3 [16] | 0 | –
HepG2 [17] | 0 | –
HepG2 [20] | – | > 10
U2OS [13] | – | > 10
U2OS [18] | 0 | –
Vero E6 [14] | – | > 10
Vero E6 [19] | 0 | –

O=C(Cn1c(=O)sc2ccc(Cl)cc21)N1CCN(CCO)CC1 [tiaramide]
cell viability [%]
Conditions | Caco-2 [2] | Calu-3 [3] | HepG2 [4] | U2OS [5] | Vero E6 [6]
1 nM | 112 | 92.2 | 94.9 | 101 | 107
10 nM | 91.4 | 101 | 109 | 101 | 95.2
100 nM | 96.7 | 90.6 | 108 | 98.7 | 94.3
1000 nM | 96.3 | 92.4 | 88.8 | 100 | 101
10000 nM | 101 | 105 | 89.3 | 98.7 | 93.4

Conditions | drug sensitivity score | relative viability EC50 [µM]
Caco-2 [11] | – | > 10
Caco-2 [15] | 0 | –
Calu-3 [12] | – | > 10
Calu-3 [16] | 0 | –
HepG2 [17] | 0.2 | –
HepG2 [20] | – | > 10
U2OS [13] | – | > 10
U2OS [18] | 0 | –
Vero E6 [14] | – | > 10
Vero E6 [19] | 0 | –

Cc1ccccc1C(=O)Nc1ccc(C(=O)N2CCCC(O)c3cc(Cl)ccc32)c(C)c1 (configuration not stated) [tolvaptan]
cell viability [%]
Conditions | Caco-2 [2] | Calu-3 [3] | HepG2 [4] | U2OS [5] | Vero E6 [6]
1 nM | 100 | 91 | 99.7 | 94.2 | 99.4
10 nM | 96.4 | 86.3 | 93 | 92.1 | 100
100 nM | 90.1 | 91.7 | 96.4 | 103 | 93.4
1000 nM | 89.8 | 78.8 | 106 | 97.4 | 98.3
10000 nM | 94.1 | 102 | 110 | 96.7 | 104

Conditions | drug sensitivity score | relative viability EC50 [µM]
Caco-2 [11] | – | > 10
Caco-2 [15] | 0.1 | –
Calu-3 [12] | – | > 10
Calu-3 [16] | 0.5 | –
HepG2 [17] | 0 | –
HepG2 [20] | – | > 10
U2OS [13] | – | > 10
U2OS [18] | 0 | –
Vero E6 [14] | – | > 10
Vero E6 [19] | 0 | –

Cn1c(=O)cc(N2CCC[C@@H](N)C2)n(Cc2cc(F)ccc2C#N)c1=O [trelagliptin]
cell viability [%]
Conditions | Caco-2 [2] | Calu-3 [3] | HepG2 [4] | U2OS [5] | Vero E6 [6]
1 nM | 101 | 98.9 | 96.7 | 104 | 102
10 nM | 98.9 | 110 | 99.1 | 95.6 | 98.4
100 nM | 92.3 | 105 | 88.3 | 96.6 | 99.2
1000 nM | 104 | 102 | 96.5 | 95.1 | 103
10000 nM | 95.6 | 107 | 88.8 | 106 | 98.2

Conditions | drug sensitivity score | relative viability EC50 [µM]
Caco-2 [11] | – | > 10
Caco-2 [15] | 0 | –
Calu-3 [12] | – | > 10
Calu-3 [16] | 0 | –
HepG2 [17] | 0 | –
HepG2 [20] | – | > 10
U2OS [13] | – | > 10
U2OS [18] | 0 | –
Vero E6 [14] | – | > 10
Vero E6 [19] | 0 | –

COc1cc(C(=O)NC2CCCNC2)cc(OC)c1OC (configuration not stated) [troxipide]
cell viability [%]
Conditions | Caco-2 [2] | Calu-3 [3] | HepG2 [4] | U2OS [5] | Vero E6 [6]
1 nM | 99 | 97.5 | 103 | 106 | 103
10 nM | 103 | 91.3 | 109 | 96.3 | 109
100 nM | 98.4 | 94 | 97.4 | 102 | 101
1000 nM | 97.4 | 106 | 103 | 98.8 | 102
10000 nM | 99.6 | 97.8 | 104 | 101 | 98.4

Conditions | drug sensitivity score | relative viability EC50 [µM]
Caco-2 [11] | – | > 10
Caco-2 [15] | 0 | –
Calu-3 [12] | – | > 10
Calu-3 [16] | 0 | –
HepG2 [17] | 0 | –
HepG2 [20] | – | > 10
U2OS [13] | – | > 10
U2OS [18] | 0 | –
Vero E6 [14] | – | > 10
Vero E6 [19] | 0 | –
